Measurements taken from EP1857440A1, “Novel compounds, isomer thereof, or pharmaceutically acceptable salts thereof as vanilloid receptor antagonist; and pharmaceutical compositions containing the same” (Amorepacific Corporation, priority 2006, dated 2007).

Molecular target: T1, vanilloid receptor (Rattus norvegicus, UniProt O35433)
T1 construct: DRG nerve cells from the primary culture of 2 days were equilibrated by washing 4 times; endogenous in cells; host or cells: primary culture of dorsal root ganglion (DRG) neurons from neonatal SD rats
Experiment: 45Ca influx test (calcium uptake) in primary cultured neonatal rat DRG neurons, capsaicin-stimulated
Assay type: cell-based, SD rats
Conditions: capsaicin 0.5 µM, 45Ca 10 µCi/ml, 10 mins at room temperature, read-out: Antagonist Calcium Uptake Test (IC50)
Method: 1) Separation of spinal dorsal root ganglia (DRG) in newborn rats and primary culture thereof
Neonatal (2-3 day old or younger than 2-3 day old) SD rats were put in ice for 5 minutes to anesthetize and disinfected with 70% ethanol. DRG of all part of spinal cord were dissected (Wood et al., 1988, J. Neurosci. 8, pp3208-3220) and collected in DME/F12 medium to which 1.2g/l sodium bicarbonate, 50mg/l gentamycin were added. The DRG were incubated sequentially at 37°C for 30 min in 200 U/ml collagenase and 2.5mg/ml trypsin, separately. The gangiia were washed twice with DME/F12 medium supplemented with 10% horse serum, triturated through a fire-polished Pasteur pipette, filtered through Nitex 80 membrane to obtain single cell suspension and the suspension was washed once more. This was subjected to centrifugation, then resuspended in cell culture medium at certain level of cell density. As the cell culture medium, DME/F12 medium supplemented with 10% horse serum was diluted with identical medium conditioned by C6 glioma cells 2 days on a confluent monolayer (1:1), and NGF (Nerve Growth Factor) was added to adjust 200ng/ml as final concentration. After the cells were grown 2 days in medium where cytosine arabinoside (Ara-C, 100 µM) was added to kill dividing nonneuronal cells, medium was changed to one without Ara-C. The resuspended cells were plated at a density of 1500-2000 neurons/well onto Terasaki plates previously coated with 10 µg/ml poly-D-ornithine.
2) ^45 Ca influx experiments
DRG nerve cells from the primary culture of 2 days were equilibrated by washing 4 times with HEPES (10mM, pH 7.4)-buffered Ca ^2+, Mg^2+-free HBSS (H-HBSS). The solution in each well was removed from the individual well. Medium containing the test compound plus capsaicin (final concentration 0.5 µM) and ^45Ca (final concentration 10 µCi/ml) in H-HBSS was added to each well and incubated at room temperature for 10 mins. Terasaki plates were washed five times with H-HBSS and dried at room temperature. To each well, 0.3% SDS (10 µl) was added to elute ^45Ca. After the addition of scintillation cocktail of into each well, the amount of ^45Ca influx into neuron was measured by counting radioactivity. […] [Table 1] Results of Calcium Influx Test

T1 sequence (O35433 whole entry): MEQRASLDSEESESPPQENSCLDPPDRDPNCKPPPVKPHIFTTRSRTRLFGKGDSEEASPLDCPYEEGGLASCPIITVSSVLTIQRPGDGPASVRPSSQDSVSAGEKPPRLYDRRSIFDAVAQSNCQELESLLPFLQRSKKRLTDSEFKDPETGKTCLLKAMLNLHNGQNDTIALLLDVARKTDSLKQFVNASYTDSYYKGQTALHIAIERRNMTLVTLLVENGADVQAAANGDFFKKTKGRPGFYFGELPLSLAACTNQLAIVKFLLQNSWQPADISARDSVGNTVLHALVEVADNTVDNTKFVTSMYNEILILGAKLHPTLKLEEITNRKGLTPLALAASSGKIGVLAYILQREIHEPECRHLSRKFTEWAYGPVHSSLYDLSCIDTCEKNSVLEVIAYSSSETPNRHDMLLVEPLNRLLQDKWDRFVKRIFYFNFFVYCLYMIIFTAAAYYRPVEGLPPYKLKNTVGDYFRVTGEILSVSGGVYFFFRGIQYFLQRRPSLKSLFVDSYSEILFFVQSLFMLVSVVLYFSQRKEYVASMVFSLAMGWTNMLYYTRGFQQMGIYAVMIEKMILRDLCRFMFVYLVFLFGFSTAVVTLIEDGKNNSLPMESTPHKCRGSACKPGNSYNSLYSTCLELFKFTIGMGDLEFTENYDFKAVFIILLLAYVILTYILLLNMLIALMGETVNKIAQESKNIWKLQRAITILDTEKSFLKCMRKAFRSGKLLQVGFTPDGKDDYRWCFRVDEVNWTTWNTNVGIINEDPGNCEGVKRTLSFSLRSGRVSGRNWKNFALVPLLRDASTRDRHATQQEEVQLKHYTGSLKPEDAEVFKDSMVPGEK

SMILES | IC50 [µM]
CC(C)(C)c1ccc(OCC(=O)NCc2ccc(NS(C)(=O)=O)cc2)cc1 [Example 1, 2-(4-tert-Butylphenoxy)-N-(4-methanesulfonylaminobenzyl)acetamide] | 0.11
C=Cc1cc(CNC(=O)COc2ccc(C(C)(C)C)cc2)ccc1NS(C)(=O)=O [Example 4, 2-(4-tert-Butylphenoxy)-N-(4-methanesulfonylamino-3-vinylbenzyl)acetamide] | 0.081
CCc1cc(CNC(=O)COc2ccc(C(C)(C)C)cc2)cc(F)c1NS(C)(=O)=O [Example 7, 2-(4-tert-Butylphenoxy)-N-(3-ethyl-5-fluoro-4-methanesulfonylaminobenzyl)acetamide] | 0.13
Cc1cc(CNC(=O)COc2ccc(C(C)(C)C)cc2)cc(Cl)c1NS(C)(=O)=O [Example 8, 2-(4-tert-Butyl-phenoxy)-N-(3-chloro-4-methanesulfonylamino-5-methylbenzyl)acetamide] | 0.11
Cc1cc(NS(C)(=O)=O)c(F)cc1CNC(=O)COc1ccc(C(C)(C)C)cc1 [Example 9, 2-(4-tert-Butylphenoxy)-N-(5-fluoro-4-methanesulfonylamino-2-methylbenzyl)acetamide] | 0.33
Cc1cc(CNC(=O)COc2ccc(C(C)(C)C)cc2)cc(F)c1NS(C)(=O)=O [Example 10, 2-(4-tert-Butylphenoxy)-N-(3-fluoro-4-methanesulfonylamino-5-methylbenzyl) acetamide] | 0.16
C[C@@H](NC(=O)COc1ccc(C(C)(C)C)cc1)c1ccc(NS(C)(=O)=O)cc1 [Example 11, (R)-2-(4-tert-Butylphenoxy)-N-[1-(4-methanesulfonylaminophenyl)ethyl]acetamide] | 0.096
C[C@@H](Oc1ccc(C(C)(C)C)cc1)C(=O)NCc1ccc(NS(C)(=O)=O)c(F)c1 [Example 13, (R)-2-(4-tert-Butylphenoxy)-N-(3-fluoro-4-methanesulfonylaminobenzyl)propionamide] | 0.16
C[C@H](Oc1ccc(C(C)(C)C)cc1)C(=O)NCc1ccc(NS(C)(=O)=O)c(F)c1 [Example 14, (S)-2-(4-tert-Butylphenoxy)-N-(3-fluoro-4-methanesulfonylaminobenzyl)propionamide] | 0.76
C[C@@H](NC(=S)COc1ccc(C(C)(C)C)cc1)c1ccc(NS(C)(=O)=O)cc1 [Example 15, (R)-2-(4-tert-Butylphenoxy)-N-[1-(4-methanesulfonylaminophenyl)ethyl]thioacetamide] | 0.68
C[C@@H](N/C(COc1ccc(C(C)(C)C)cc1)=N/C#N)c1ccc(NS(C)(=O)=O)cc1 [Example 17, (R)-2-(4-tert-Butylphenoxy)-N-[1-(4-methanesulfonylaminophenyl)ethyl]-N'-cyanoacetamidine] | 0.21
CC(C)(C)c1ccc(SCC(=O)NCc2ccc(NS(C)(=O)=O)c(F)c2)cc1 [Example 19, 2-(4-tert-Butyl-phenylsulfanyl)-N-(3-fluoro-4-methanesulfonylaminobenzyl)-acetamide] | 1.5
C#Cc1cc(CNC(=O)CSc2ccc(C(C)(C)C)cc2)cc(F)c1NS(C)(=O)=O [Example 20, 2-(4-tert-Butyl-phenylsulfanyl)-N-(3-ethynyl-5-fluoro-4-methanesulfonylamino-benzyl)-acetamide] | 0.19

Next, values leading:

IC50 [µM] | SMILES
> 10 | CC(C)(Oc1ccc(C(F)(F)F)cc1)C(=O)NCc1ccc(NS(C)(=O)=O)c(Cl)c1 [Example 21, N-(3-Chloro-4-methanesulfonylamino-benzyl)-2-methyl-2-(4-trifluoromethyl-phenoxy)-propionamide]
> 10 | CS(=O)(=O)Nc1ccc(CNC(=O)COc2ccc(Cl)cc2Cl)cc1F [Example 22, 2-(2,4-Dichloro-phenoxy)-N-(3-fluoro-4-methanesulfonylaminobenzyl)-acetamide]
> 10 | CC(C)(Oc1ccc(C(F)(F)F)cc1)C(=O)NCc1ccc(NS(C)(=O)=O)c(F)c1 [Example 23, N-(3-Fluoro-4-methanesulfonylamino-benzyl)-2-methyl-2-(4-trifluoromethyl-phenoxy)-propionamide]
2.3 | CS(=O)(=O)Nc1ccc(CNC(=O)COc2ccc(Cl)c(Cl)c2)cc1F [Example 25, 2-(3,4-Dichloro-phenoxy)-N-(3-fluoro-4-methanesulfonylaminobenzyl)-acetamide]
> 10 | CS(=O)(=O)Nc1ccc(CNC(=O)COCc2ccc(C(F)(F)F)cc2)cc1F [Example 26, N-(3-Fluoro-4-methanesulfonylamino-benzyl)-2-(4-trifluoromethylbenzyloxy)-acetamide]
> 10 | CS(=O)(=O)Nc1ccc(CNC(=O)COc2ccc(-c3ccccc3)cc2)cc1F [Example 27, 2-(Biphenyl-4-yloxy)-N-(3-fluoro-4-methanesulfonylamino-benzyl)-acetamide]
4.3 | CS(=O)(=O)Nc1ccc(CNC(=O)COc2ccc(OC(F)(F)F)cc2)cc1F [Example 28, N-(3-Fluoro-4-methanesulfonylaminobenzyl)-2-(4-(trifluoromethoxy)phenoxy)acetamide]
> 10 | CS(=O)(=O)Nc1ccc(CNC(=O)COc2ccc3c(c2)OCO3)cc1F [Example 29, 2-(Benzo[1,3]dioxol-5-yloxy)-N-(3-fluoro-4-methanesulfonylaminobenzyl)-acetamide]
3.4 | C=Cc1cc(CNC(=O)COc2ccc3c(c2)OCO3)cc(F)c1NS(C)(=O)=O [Example 30, 2-(Benzo[1,3]dioxol-5-yloxy)-N-(3-fluoro-4-methanesulfonylamino-5-vinyl-benzyl)-acetamide]
> 10 | COc1cc(C)ccc1OCC(=O)NCc1ccc(NS(C)(=O)=O)c(F)c1 [Example 31, N-(3-Fluoro-4-methanesulfonylamino-benzyl)-2-(2-methoxy-4-methyl-phenoxy)-acetamide]
> 10 | COc1cc(Cl)ccc1OCC(=O)NCc1ccc(NS(C)(=O)=O)c(F)c1 [Example 32, 2-(4-Chloro-2-methoxy-phenoxy)-N-(3-fluoro-4methanesulfonylamino-benzyl)-acetamide]
> 10 | CS(=O)(=O)Nc1ccc(CNC(=O)COc2cc(Cl)cc(Cl)c2)cc1F [Example 33, N-(3-Fluoro-4-methanesulfonylaminobenzyl)-2-(3,5-dichlorophenoxy)acetamide]
8.7 | CS(=O)(=O)Nc1ccc(CNC(=O)COc2ccc(Cl)cc2)cc1F [Example 34, 2-(4-Chloro-phenoxy)-N-(3-fluoro-4-methanesulfonylamino-benzyl)-acetamide]
> 10 | Cc1cc(OCC(=O)NCc2ccc(NS(C)(=O)=O)c(F)c2)ccc1[N+](=O)[O-] [Example 35, N-(3-Fluoro-4-methanesulfonylaminobenzyl)-2-(3-methyl-4-nitrophenoxy)acetamide]
1.2 | CS(=O)(=O)Nc1ccc(CNC(=O)COc2ccc(I)cc2)cc1F [Example 36, N-(3-Fluoro-4-methanesulfonylamino-benzyl)-2-(4-iodo-phenoxy)-acetamide]
> 10 | CS(=O)(=O)Nc1ccc(CNC(=O)COc2ccc(F)cc2F)cc1F [Example 37, N-(3-Fluoro-4-methanesulfonylaminobenzyl)-2-(2,4-difluorophenoxy)acetamide]
2.6 | CS(=O)(=O)Nc1ccc(CNC(=O)COc2c(I)cc(C(F)(F)F)cc2I)cc1F [Example 38, 2-(2,6-Diiodo-4-trifluoromethyl-phenoxy)-N-(3-fluoro-4-methanesulfonylamino-benzyl)-acetamide]
